Source: US8609690B2, “Aryl- and heteroarylcarbonyl derivatives of substituted nortropanes, medicaments containing such compounds and their use” (Boehringer Ingelheim International GmbH, priority 2008, dated 2013)

Target: T1, 11β-HSD 1 (Homo sapiens, UniProt P28845)
T1 construct: detecting cortisol generated from cortisterone by human liver microsomes; from tissue; host or cells: human liver microsomes
Experiment: In vitro inhibition of 11β-HSD 1, HTRF detection of cortisol generated by human liver microsomes
Assay type: biochemical
Conditions: 1 μM test compound, 100% indicates no inhibition, zero or below zero indicates complete inhibition (relative to carbenoxolone)
Experimental: Briefly, compounds were incubated for 1 hour at 37° C. in Tris buffer (20 mM tris, 5 mM EDTA, pH 6.0) containing NADPH (200 μM) and cortisone (80 nM). Cortisol generated in the reaction is then detected with a competitive immunoassay, involving two HTRF conjugates: cortisol linked to XL665 and anti-cortisol antibody labeled with Europium cryptate. The incubation period for detection reaction was typically 2 hours. The amount of cortisol is determined by reading the time-resolved fluorescence of the wells (Ex 320/75 nm; Em 615/8.5 nm and 665/7.5 nm). The ratio of the two emission signals is then calculated (Em665*10000/Em615). […] Each assay also contained a calibration curve with cortisol to transform the fluorescent data into cortisol concentrations. Percent inhibition of each compound was determined relative to the carbenoxolone signal. In Table 2 the 11β-HSD 1 inhibitory activities at 1 μM concentration of test compound, determined as described above, of the compounds listed in Table 3 are compiled, wherein 100% indicates no inhibition and a value of zero or below zero indicates complete inhibition.

T1 sequence (P28845 whole entry): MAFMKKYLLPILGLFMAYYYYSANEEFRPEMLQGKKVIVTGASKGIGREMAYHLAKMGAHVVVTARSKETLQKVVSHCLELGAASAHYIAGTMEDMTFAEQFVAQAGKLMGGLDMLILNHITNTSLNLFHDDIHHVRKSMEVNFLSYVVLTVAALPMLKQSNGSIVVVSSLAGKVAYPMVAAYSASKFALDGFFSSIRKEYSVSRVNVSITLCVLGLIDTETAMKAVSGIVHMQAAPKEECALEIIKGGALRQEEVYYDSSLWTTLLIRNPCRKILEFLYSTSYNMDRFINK

Compared with `CNC(=O)c1ccc(C(=O)N2[C@@H]3CC[C@H]2C[C@@H](c2ccc(F)cc2)C3)cc1` [Example 79, endo-4-[3-(4-Fluoro-phenyl)-8-aza-bicyclo[3.2.1]octane-8-carbonyl]N-methyl-benzamide], `Cc1ccc(C(=O)N2[C@@H]3CC[C@H]2C[C@@H](c2ccc(F)cc2)C3)cc1` [Example 101, endo-[3-(4-Fluoro-phenyl)-8-aza-bicyclo[3.2.1]oct-8-yl]-p-tolyl-methanone] is lower in “Inhibitory activity on 11β-HSD 1, % CTL” value: 90 % CTL for the first, 4 % CTL for the second.

Going from `O=C(c1cccc(CO)c1)N1[C@@H]2CC[C@H]1C[C@@H](c1ccc(F)cc1)C2` [Example 82, endo-[3-(4-Fluoro-phenyl)-8-aza-bicyclo[3.2.1]oct-8-yl]-(3-hydroxymethyl-phenyl)-methanone] to `Cc1cccc(C(=O)N2[C@@H]3CC[C@H]2C[C@@H](c2ccc(F)cc2)C3)c1` [Example 99, endo-[3-(4-Fluoro-phenyl)-8-aza-bicyclo[3.2.1]oct-8-yl]-m-tolyl-methanone], the “Inhibitory activity on 11β-HSD 1, % CTL” value falls from 5 % CTL to −39 % CTL.

Compared with `CNc1cccc(C(=O)N2[C@@H]3CC[C@H]2C[C@@H](c2ccc(F)cc2)C3)c1` [Example 83, endo-[3-(4-Fluoro-phenyl)-8-aza-bicyclo[3.2.1]oct-8-yl]-(3-methylamino-phenyl)-methanone], `O=C(c1cccc(F)c1)N1[C@@H]2CC[C@H]1C[C@@H](c1ccc(F)cc1)C2` [Example 104, endo-(3-Fluoro-phenyl)-[3-(4-fluoro-phenyl)-8-aza-bicyclo[3.2.1]oct-8-yl]-methanone] is higher in “Inhibitory activity on 11β-HSD 1, % CTL” value: −30 % CTL for the first, 43 % CTL for the second.

First: NC(=O)c1cccc(C(=O)N2[C@@H]3CC[C@H]2C[C@@H](c2ccc(F)cc2)C3)c1 [Example 84, endo-3-[3-(4-Fluoro-phenyl)-8-aza-bicyclo[3.2.1]octane-8-carbonyl]-benzamide]
Second: N#Cc1cccc(C(=O)N2[C@@H]3CC[C@H]2C[C@@H](c2ccc(F)cc2)C3)c1 [Example 106, endo-3-[3-(4-Fluoro-phenyl)-8-aza-bicyclo[3.2.1]octane-8-carbonyl]-benzonitrile]
The “Inhibitory activity on 11β-HSD 1, % CTL” value of the first is lower: 41 % CTL for the first, 75 % CTL for the second.

First: O=C(c1ccc(-c2cnco2)cc1)N1[C@@H]2CC[C@H]1C[C@@H](c1ccc(F)cc1)C2 [Example 87, endo-[3-(4-Fluoro-phenyl)-8-aza-bicyclo[3.2.1]oct-8-yl]-(4-oxazol-5-yl-phenyl)-methanone]
Second: O=C(c1cccc(-c2cnco2)c1)N1[C@@H]2CC[C@H]1C[C@@H](c1ccc(F)cc1)C2 [Example 91, endo-[3-(4-Fluoro-phenyl)-8-aza-bicyclo[3.2.1]oct-8-yl]-(3-oxazol-5-yl-phenyl)-methanone]
The “Inhibitory activity on 11β-HSD 1, % CTL” value of the first is lower: −2 % CTL for the first, 69 % CTL for the second.

Going from `Cc1nc(-c2cccc(C(=O)N3[C@@H]4CC[C@H]3C[C@@H](c3ccc(F)cc3)C4)c2)no1` [Example 88, endo-[3-(4-Fluoro-phenyl)-8-aza-bicyclo[3.2.1]oct-8-yl]-[3-(5-methyl-[1,2,4]oxadiazol-3-yl)-phenyl]-methanone] to `COc1cccc(C(=O)N2[C@@H]3CC[C@H]2C[C@@H](c2ccc(F)cc2)C3)c1` [Example 109, endo-[3-(4-Fluoro-phenyl)-8-aza-bicyclo[3.2.1]oct-8-yl]-(3-methoxy-phenyl)-methanone], the “Inhibitory activity on 11β-HSD 1, % CTL” value falls from 98 % CTL to −33 % CTL.

Compared with `O=C(c1cccc(-c2cc[nH]n2)c1)N1[C@@H]2CC[C@H]1C[C@@H](c1ccc(F)cc1)C2` [Example 90, endo-[3-(4-Fluoro-phenyl)-8-aza-bicyclo[3.2.1]oct-8-yl]-[3-(1H-pyrazol-3-yl)-phenyl]-methanone], `O=C(c1ccccc1)N1[C@@H]2CC[C@H]1C[C@@H](c1ccc(F)cc1)C2` [Example 96, endo-[3-(4-Fluoro-phenyl)-8-aza-bicyclo[3.2.1]oct-8-yl]-phenyl-methanone] is lower in “Inhibitory activity on 11β-HSD 1, % CTL” value: 42 % CTL for the first, 33 % CTL for the second.

Going from `O=C(c1ccc2scnc2c1)N1[C@@H]2CC[C@H]1C[C@@H](c1ccc(F)cc1)C2` [Example 93, endo-Benzothiazol-5-yl-[3-(4-fluoro-phenyl)-8-aza-bicyclo[3.2.1]oct-8-yl]-methanone] to `O=C(c1ccc2ncsc2c1)N1[C@@H]2CC[C@H]1C[C@@H](c1ccc(F)cc1)C2` [Example 94, endo-Benzothiazol-6-yl-[3-(4-fluoro-phenyl)-8-aza-bicyclo[3.2.1]oct-8-yl]-methanone], the “Inhibitory activity on 11β-HSD 1, % CTL” value falls from 38 % CTL to 12 % CTL.

Going from `O=C1NCc2cccc(C(=O)N3[C@@H]4CC[C@H]3C[C@@H](c3ccc(F)cc3)C4)c21` [Example 95, endo-7-[3-(4-Fluoro-phenyl)-8-aza-bicyclo[3.2.1]octane-8-carbonyl]-2,3-dihydro-isoindol-1-one] to `Cc1ccccc1C(=O)N1[C@@H]2CC[C@H]1C[C@@H](c1ccc(F)cc1)C2` [Example 100, endo-[3-(4-Fluoro-phenyl)-8-aza-bicyclo[3.2.1]oct-8-yl]-o-tolyl-methanone], the “Inhibitory activity on 11β-HSD 1, % CTL” value falls from 92 % CTL to 61 % CTL.

First: O=C(c1ccc(O)nc1)N1[C@@H]2CC[C@H]1C[C@@H](c1ccc(F)cc1)C2 [Example 102, endo-[3-(4-Fluoro-phenyl)-8-aza-bicyclo[3.2.1]oct-8-yl]-(6-hydroxy-pyridin-3-yl)-methanone]
Second: O=C(c1ccc(F)cc1)N1[C@@H]2CC[C@H]1C[C@@H](c1ccc(F)cc1)C2 [Example 103, endo-(4-Fluoro-phenyl)-[3-(4-fluoro-phenyl)-8-aza-bicyclo[3.2.1]oct-8-yl]-methanone]
The “Inhibitory activity on 11β-HSD 1, % CTL” value of the first is higher: 47 % CTL for the first, 32 % CTL for the second.

First: N#Cc1ccc(C(=O)N2[C@@H]3CC[C@H]2C[C@@H](c2ccc(F)cc2)C3)cc1 [Example 105, endo-4-[3-(4-Fluoro-phenyl)-8-aza-bicyclo[3.2.1]octane-8-carbonyl]-benzonitrile]
Second: COc1ccc(C(=O)N2[C@@H]3CC[C@H]2C[C@@H](c2ccc(F)cc2)C3)cc1 [Example 108, endo-[3-(4-Fluoro-phenyl)-8-aza-bicyclo[3.2.1]oct-8-yl]-(4-methoxy-phenyl)-methanone]
The “Inhibitory activity on 11β-HSD 1, % CTL” value of the first is higher: 58 % CTL for the first, 1 % CTL for the second.

Going from `Cc1ccc(C(=O)N2[C@@H]3CC[C@H]2C[C@@H](c2ccc(F)cc2)C3)cc1C` [Example 107, endo-(3,4-Dimethyl-phenyl)-[3-(4-fluoro-phenyl)-8-aza-bicyclo[3.2.1]oct-8-yl]-methanone] to `COc1ccccc1C(=O)N1[C@@H]2CC[C@H]1C[C@@H](c1ccc(F)cc1)C2` [Example 110, endo-[3-(4-Fluoro-phenyl)-8-aza-bicyclo[3.2.1]oct-8-yl]-(2-methoxy-phenyl)-methanone], the “Inhibitory activity on 11β-HSD 1, % CTL” value rises from −38 % CTL to 87 % CTL.

Same assay, conditions: 1 μM test compound, 100% indicates no inhibition, zero or below zero indicates complete inhibition (relative to carbenoxolone), 1 µM

Going from `NC(=O)c1ccc(C(=O)N2[C@@H]3CC[C@H]2C[C@@H](c2ccc(F)cc2)C3)cc1` [Example 81, endo-4-[3-(4-Fluoro-phenyl)-8-aza-bicyclo[3.2.1]octane-8-carbonyl]-benzamide] to `O=C(c1ccccn1)N1[C@@H]2CC[C@H]1C[C@@H](c1ccc(F)cc1)C2` [Example 98, endo-[3-(4-Fluoro-phenyl)-8-aza-bicyclo[3.2.1]oct-8-yl]-pyridin-2-yl-methanone], the “Inhibitory activity on 11β-HSD 1, % CTL” value rises from −9 % CTL to 74 % CTL.
